Assay results from ChEMBL document CHEMBL1909046, “DrugMatrix in vitro pharmacology data”.

Columns and labels:
[1] = target: T1, Amine oxidase [flavin-containing] A (Homo sapiens, UniProt P21397); assay: DRUGMATRIX: Monoamine Oxidase MAO-A enzyme inhibition (substrate: Kynuramine); design: species or system BTI-TN-5B1-4; conditions: Not Active = under 50% inhibition at 10 µM
T1 sequence (P21397 whole entry): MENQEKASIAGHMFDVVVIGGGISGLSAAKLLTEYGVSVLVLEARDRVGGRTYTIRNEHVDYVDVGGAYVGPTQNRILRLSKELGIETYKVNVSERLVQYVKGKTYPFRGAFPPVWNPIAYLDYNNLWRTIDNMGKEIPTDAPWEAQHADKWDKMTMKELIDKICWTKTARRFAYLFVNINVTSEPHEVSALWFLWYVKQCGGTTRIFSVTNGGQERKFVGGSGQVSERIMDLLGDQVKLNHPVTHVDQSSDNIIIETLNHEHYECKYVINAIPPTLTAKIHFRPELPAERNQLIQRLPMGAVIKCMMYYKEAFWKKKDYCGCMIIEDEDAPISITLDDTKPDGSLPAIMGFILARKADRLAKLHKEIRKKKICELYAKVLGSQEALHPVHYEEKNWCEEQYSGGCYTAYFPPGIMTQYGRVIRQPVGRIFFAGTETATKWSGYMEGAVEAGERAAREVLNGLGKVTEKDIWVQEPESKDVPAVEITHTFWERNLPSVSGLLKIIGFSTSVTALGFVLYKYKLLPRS

[2] = DRUGMATRIX: Phosphodiesterase PDE4 enzyme inhibition (substrate: [3H]cAMP + cAMP); conditions: u-937; Not Active = under 50% inhibition at 10 µM
[3] = target: T2, 5-hydroxytryptamine receptor 1A (Rattus norvegicus, UniProt P19327); assay type: cell membranes, CHO-K1, Membrane; conditions: cho-k1; further: in other assays of this panel Not Active means under 50% inhibition at 10 µM
T2 sequence (P19327 whole entry): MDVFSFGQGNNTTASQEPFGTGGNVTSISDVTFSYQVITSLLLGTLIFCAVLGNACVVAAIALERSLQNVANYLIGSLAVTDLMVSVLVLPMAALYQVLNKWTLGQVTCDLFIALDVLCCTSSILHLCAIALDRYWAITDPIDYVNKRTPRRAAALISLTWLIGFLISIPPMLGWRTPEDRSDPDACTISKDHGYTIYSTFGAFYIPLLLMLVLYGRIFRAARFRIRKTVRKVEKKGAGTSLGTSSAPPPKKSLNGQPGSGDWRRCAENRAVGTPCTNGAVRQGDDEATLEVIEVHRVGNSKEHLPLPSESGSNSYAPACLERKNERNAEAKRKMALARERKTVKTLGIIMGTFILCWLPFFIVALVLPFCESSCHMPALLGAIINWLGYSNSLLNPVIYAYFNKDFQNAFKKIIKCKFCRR

[4] = target: Substance-P receptor (Homo sapiens, UniProt P25103); assay type: cell membranes, CHO, Membrane; conditions: cho; further: in other assays of this panel Not Active means under 50% inhibition at 10 µM
Chain of Substance-P receptor (P25103 whole entry): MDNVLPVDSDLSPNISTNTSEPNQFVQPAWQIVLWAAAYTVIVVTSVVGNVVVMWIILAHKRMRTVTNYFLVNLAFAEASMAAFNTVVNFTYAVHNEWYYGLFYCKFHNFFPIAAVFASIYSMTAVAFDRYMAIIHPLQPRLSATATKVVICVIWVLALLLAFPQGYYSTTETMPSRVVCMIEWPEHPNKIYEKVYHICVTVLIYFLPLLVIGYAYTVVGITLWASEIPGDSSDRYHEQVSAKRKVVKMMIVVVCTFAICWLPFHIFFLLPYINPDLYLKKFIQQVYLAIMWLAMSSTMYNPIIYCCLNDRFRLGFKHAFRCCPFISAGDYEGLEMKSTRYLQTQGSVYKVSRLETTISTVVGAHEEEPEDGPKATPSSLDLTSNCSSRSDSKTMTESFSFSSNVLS

[5] = target: T3, Receptor-type tyrosine-protein phosphatase C (Homo sapiens, UniProt P08575); design: species or system Escherichia coli;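 further: inhibition of CD45 enzyme activity measured using DiFMUP as substrate; in other assays of this panel Not Active means under 50% inhibition at 10 µM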
T3 sequence (P08575 whole entry): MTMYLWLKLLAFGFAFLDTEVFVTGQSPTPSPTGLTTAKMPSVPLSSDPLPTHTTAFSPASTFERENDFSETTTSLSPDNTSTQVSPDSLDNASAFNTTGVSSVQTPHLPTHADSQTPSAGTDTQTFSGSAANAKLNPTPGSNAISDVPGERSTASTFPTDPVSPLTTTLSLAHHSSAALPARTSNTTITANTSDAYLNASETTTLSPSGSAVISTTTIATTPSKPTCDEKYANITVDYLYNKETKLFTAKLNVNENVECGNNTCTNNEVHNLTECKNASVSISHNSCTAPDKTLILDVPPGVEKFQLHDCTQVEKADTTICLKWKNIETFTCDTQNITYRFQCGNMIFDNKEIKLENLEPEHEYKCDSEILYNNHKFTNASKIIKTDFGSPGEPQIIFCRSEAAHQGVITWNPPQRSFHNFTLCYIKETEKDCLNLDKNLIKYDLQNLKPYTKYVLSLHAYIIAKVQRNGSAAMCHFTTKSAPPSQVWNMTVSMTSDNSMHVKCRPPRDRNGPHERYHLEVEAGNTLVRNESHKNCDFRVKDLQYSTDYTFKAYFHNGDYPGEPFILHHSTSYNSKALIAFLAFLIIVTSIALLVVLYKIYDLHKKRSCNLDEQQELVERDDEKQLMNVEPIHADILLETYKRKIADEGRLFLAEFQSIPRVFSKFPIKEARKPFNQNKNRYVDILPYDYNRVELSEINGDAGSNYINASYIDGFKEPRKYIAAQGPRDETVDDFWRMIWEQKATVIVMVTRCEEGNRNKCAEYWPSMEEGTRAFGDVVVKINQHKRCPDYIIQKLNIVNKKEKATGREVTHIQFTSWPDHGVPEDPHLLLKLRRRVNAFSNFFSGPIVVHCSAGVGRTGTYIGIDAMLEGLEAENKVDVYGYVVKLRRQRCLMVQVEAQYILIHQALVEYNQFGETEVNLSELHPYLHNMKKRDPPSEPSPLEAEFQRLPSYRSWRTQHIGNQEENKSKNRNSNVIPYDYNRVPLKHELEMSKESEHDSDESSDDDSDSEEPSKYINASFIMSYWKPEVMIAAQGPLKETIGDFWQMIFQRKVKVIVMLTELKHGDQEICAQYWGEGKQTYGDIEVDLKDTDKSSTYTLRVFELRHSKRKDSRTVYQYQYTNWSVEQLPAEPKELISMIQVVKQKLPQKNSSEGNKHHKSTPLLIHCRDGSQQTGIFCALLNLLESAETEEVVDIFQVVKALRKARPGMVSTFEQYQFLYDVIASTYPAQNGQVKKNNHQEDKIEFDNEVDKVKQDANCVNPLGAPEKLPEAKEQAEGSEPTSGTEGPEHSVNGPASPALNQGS

[6] = target: 5-hydroxytryptamine receptor 1B (Rattus norvegicus, UniProt P28564); assay type: cell membranes, Wistar, Cerebral cortex, Membrane; further: in other assays of this panel Not Active means under 50% inhibition at 10 µM
Chain of 5-hydroxytryptamine receptor 1B (P28564 whole entry): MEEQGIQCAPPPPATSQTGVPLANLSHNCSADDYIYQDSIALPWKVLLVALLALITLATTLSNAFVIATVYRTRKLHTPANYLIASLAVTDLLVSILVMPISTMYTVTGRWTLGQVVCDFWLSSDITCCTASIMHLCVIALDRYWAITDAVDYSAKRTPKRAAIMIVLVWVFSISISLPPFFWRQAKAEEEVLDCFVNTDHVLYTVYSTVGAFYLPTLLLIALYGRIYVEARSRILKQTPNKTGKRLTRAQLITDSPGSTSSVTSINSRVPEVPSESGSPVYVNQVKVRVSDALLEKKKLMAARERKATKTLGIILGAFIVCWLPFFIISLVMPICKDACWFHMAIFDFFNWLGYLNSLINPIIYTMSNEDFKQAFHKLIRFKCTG

| Compound | IC50 ([1]; bti-tn-5b1-4) | IC50 [2] | Ki [2] | IC50 [3] | IC50 [4] | IC50 [5] | IC50 [6] | IC50 ([1]; read-out: IC50) [µM] | Ki ([1]; bti-tn-5b1-4) | Ki [3] | Ki [4] | Ki [5] | Ki [6] |
| --- | --- | --- | --- | --- | --- | --- | --- | --- | --- | --- | --- | --- | --- |
| C[C@@H]1O[C@@H](O[C@H]2C[C@@H](O)[C@]3(CO)[C@H]4[C@H](O)C[C@]5(C)[C@@H](C6=CC(=O)OC6)CC[C@]5(O)[C@@H]4CC[C@]3(O)C2)[C@H](O)[C@H](O)[C@H]1O [OUABAIN] | Not Active | Not Active | Not Active | Not Active | Not Active | Not Active | Not Active |  |  |  |  |  |  |
| NC(=O)N1c2ccccc2CC(=O)c2ccccc21 [OXCARBAZEPINE] | Not Active | Not Active | Not Active | Not Active | Not Active | Not Active | Not Active |  |  |  |  |  |  |
| COc1ccnc(C[S+]([O-])c2nc3ccc(OC(F)F)cc3[nH]2)c1OC (stereo unspecified) [PANTOPRAZOLE] | Not Active | Not Active | Not Active | Not Active | Not Active | Not Active | Not Active |  |  |  |  |  |  |
| N=C(N)c1ccc(OCCCCCOc2ccc(C(=N)N)cc2)cc1 [PENTAMIDINE] |  | Not Active | Not Active | Not Active | Not Active | Not Active | Not Active | 0.793 |  |  |  |  |  |
| CCc1ccc(CCOc2ccc(CC3SC(=O)NC3=O)cc2)nc1 (stereo unspecified) [PIOGLITAZONE] |  | Not Active | Not Active | Not Active | Not Active | Not Active | Not Active | 35.1 |  |  |  |  |  |
| CCCNC(C)C(=O)Nc1ccccc1C (stereo unspecified) [PRILOCAINE] | Not Active | Not Active | Not Active | Not Active | Not Active | Not Active | Not Active |  |  |  |  |  |  |
| CCN(CC)CCNC(=O)c1ccc(N)cc1 [PROCAINAMIDE] | Not Active | Not Active | Not Active | Not Active | Not Active | Not Active | Not Active |  |  |  |  |  |  |
| CCN(CC)CCCC(C)Nc1c2ccc(Cl)cc2nc2ccc(OC)cc12 (stereo unspecified) [QUINACRINE] | Not Active | Not Active | Not Active | Not Active | Not Active | Not Active | Not Active |  |  |  |  |  |  |
| C[C@]12C=CC(=O)C=C1CC[C@H]1[C@@H]3C[C@@H](O)[C@](O)(C(=O)CO)[C@@]3(C)C[C@H](O)[C@@]12F [TRIAMCINOLONE] | Not Active | Not Active | Not Active | Not Active | Not Active | Not Active | Not Active |  |  |  |  |  |  |
| CC[C@]1(O)C[C@@H]2CN(CCc3c([nH]c4ccccc34)[C@@](C(=O)OC)(c3cc4c(cc3OC)N(C)[C@H]3[C@@](O)(C(N)=O)[C@H](O)[C@]5(CC)C=CCN6CC[C@]43[C@@H]65)C2)C1 [VINDESINE] | Not Active | Not Active | Not Active | Not Active | Not Active | Not Active | Not Active |  |  |  |  |  |  |
| CCN(C(C)=O)c1cccc(-c2ccnc3c(C#N)cnn23)c1 [ZALEPLON] | Not Active | Not Active | Not Active | Not Active | Not Active | Not Active | Not Active |  |  |  |  |  |  |
| COBALTOUS CHLORIDE | Not Active | Not Active | Not Active | Not Active | Not Active | Not Active | Not Active |  | Not Active | Not Active | Not Active | Not Active | Not Active |
| COLISTIN | Not Active | Not Active | Not Active | Not Active | Not Active | Not Active | Not Active |  | Not Active | Not Active | Not Active | Not Active | Not Active |
